The target in the experiment is T1, RAR-α (retinoic acid receptor α) (Homo sapiens, UniProt P10276).
T1 construct: gene RARA; human recombinant RARα-LBD expressed in insect cells
T1 sequence (P10276 183-417 limits assumed): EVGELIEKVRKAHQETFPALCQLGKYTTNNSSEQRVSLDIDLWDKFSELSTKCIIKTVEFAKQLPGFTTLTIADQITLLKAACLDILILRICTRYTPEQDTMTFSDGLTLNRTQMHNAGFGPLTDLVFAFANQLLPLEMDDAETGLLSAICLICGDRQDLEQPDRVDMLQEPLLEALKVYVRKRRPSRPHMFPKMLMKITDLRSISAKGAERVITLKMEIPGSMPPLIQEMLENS
The experiment in a line: radioligand competition binding (Eurofins Cerep). (In general: Loss of bound radioactivity is the signal in a displacement assay; it reports binding, not function.)

Regarding `CC1=C(/C=C/C(C)=C/C=C/C(C)=C/c2cc(/C=C/C=C(C)/C=C/C3=C(C)CCCC3(C)C)cc[n+]2CCO)C(C)(C)CCC1` [A2E], binding was characterised by a dissociation constant (Kd) of 1.4 µM.

In turn, `CC(=C/C=C/C(C)=C/C=C/C=C(C)/C=C/C=C(C)/C=C/C(=O)O)/C=C/C(=O)O` [NBX, norbixin] registered a Kd of 47 µM.

Broadly, the Kd is a measure of binding affinity in units of concentration.

The values are drawn from article PMC10932305, “RAR Inhibitors Display Photo-Protective and Anti-Inflammatory Effects in A2E Stimulated RPE Cells In Vitro through Non-Specific Modulation of PPAR or RXR Transactivation” (International Journal of Molecular Sciences, 2024).
